Results: US5994349A, “3-carboalkoxy-2, 3-dihydro-1H-phenothiazin-4[10H]-one derivatives” (priority 1997, dated 1999)
Read-outs that look alike come from different tables or passages of the source.

Tests used:
[1] = test system: maximal electroshock seizures; test: maximal electroshock (MES) test, oral rat (Phase VIA/VIB); type: in vivo, male Sprague-Dawley rats; settings: for ED50: MES, Phase VIB
Protocol: (§1) Initial evaluations for anticonvulsant activity include phases I, VIA and VIB test procedures. These tests are performed intraperitoneally in male Carworth Farms No. 1 (CF1) mice, weighing 18-25 g (Phase I) or orally in male Sprague-Dawley rats, weighing 100-150 g (Phases VIA and VIB). The evaluation is based on three tests: maximal electroshock (MES), subcutaneous (scMet), and the rotorod test for neurological toxicity (Tox). (a) Anticonvulsant Screening Project, Antiepileptic Drug Development Program, National Institutes of Health, DHEW Publ (NIH)(U.S.) 1978, NIH 78-1093. (b) Porter, R. J.; Cereghino, J. J.; Gladding, G. D.; Hessie, B. J.; Kupferberg, H. J.; Scoville, B.; White, B. G. Antiepileptic drug development program. Cleveland Clin. Q. 1984, 51, 293-305. (c) Krall, R. L.; Penry, J. K.; White, B. G.; Kupferberg, H. J.; Swinyard, E. A. Antiepileptic drug development: II. Anticonvulsant drug screening. Epilepsia 1978, 19, 400-428. In the MES test, maximal electroshock seizures are elicited with a 60- cycle alternating current of 50 mA intensity (5-7 times that necessary to elicit minimal electroshock seizures) delivered via corneal electrodes for 0.2 seconds. A drop of 0.9% saline is placed on the eye prior to application of the electrodes in order to […]. Abolition of the hind limb tonic extension component of the seizure is defined as protection and results are expressed as the number of animals protected/the number of animals tested.
(§2) To differentiate the results between different rodent species, 4b (X=H), as well as 4a (R=H), 4e (R=Cl), 4f (R=Cl) and 4i (R=CH3) are subsequently evaluated for oral (po) activity in the rat (Phase VIA or VIB).

[2] = rotorod toxicity, oral rat (Phase VIA/VIB); type: in vivo, male Sprague-Dawley rats; settings: rat, in vivo, po
Protocol: as §1
(§3) The rotorod test is used to evaluate neurotoxicity. The animal is placed on a 1 inch diameter knurled plastic rod rotating at 6 rpm. Normal mice can remain on a rod rotating at this speed indefinitely.
as §2

[3] = test system: pentylenetetrazol seizures; test: subcutaneous pentylenetetrazol (scMet) test, Phase I, mice ip; type: in vivo, male Carworth Farms No. 1 (CF1) mice; settings: Mus musculus, mice ip
Protocol: as §1
In the sc MET test, eighty-five mg/kg of pentylenetetrazol, which induces seizures in more than 95% of mice, is administered as a 0.5% solution subcutaneously in the posterior midline. The animal is observed for 30 minutes. Failure to observe even a threshold seizure (a single episode of clonic spasms of at least 5 seconds duration) is defined as protection and the results are expressed as the number of animals protected/ the number of animals tested. […]

[4] = test system: maximal electroshock seizures; test: maximal electroshock (MES) test, Phase I, mice ip; type: in vivo, male Carworth Farms No. 1 (CF1) mice; settings: for responders at 10 mg/kg / responders at 30 mg/kg / responders at 100 mg/kg / responders at 300 mg/kg: Mus musculus
Protocol: as §1
In phase I, compounds are suspended in 0.5% aqueous methylcellulose and are administered intraperitoneally at three dosage levels (30, 100, and 300 mg/kg) with anticonvulsant activity and motor impairment noted 30 min and 4 h (and in some cases 2 h and 6 h) after administration.

[5] = test system: neurotoxicity (rotorod); test: rotorod test for neurological toxicity (Tox), Phase I, mice ip; type: in vivo, male Carworth Farms No. 1 (CF1) mice
Protocol: as §1
The rotorod test is used to evaluate neurotoxicity. The animal is placed on a 1 inch diameter knurled plastic rod rotating at 6 rpm. Normal mice can remain on a rod rotating at this speed indefinitely. […]

[6] = test system: neurotoxicity (rotorod); test: rotorod toxicity, oral rat (Phase VIA/VIB); type: in vivo, male Sprague-Dawley rats; settings: rat oral, 30 mg/kg
Protocol: as §1, §3, §2

[7] = test system: threshold tonic extension electroshock seizures; test: Threshold Tonic Extension (TTE) test, mice ip; type: in vivo; settings: 100 mg/kg
Text: (§4) Piredda, S. G.; Woodhead, J. H.; Swinyard, E. A. Effect of stimulus intensity on the profile of anticonvulsant activity of phenytoin, ethosuximide and valproate. J. Pharmacol. Exp. Ther. 1985, 232, 741-745. The TTE test is a clinically nonselective, electroconvulsive seizure model that identifies compounds that raise seizure threshold as well as those that prevent seizure spread. […] The TTE test is similar to the MES screen but uses a lower level of electrical current. The lower current makes the TTE test more sensitive, but less discriminate than the MES screen. This ability makes the model attractive because it allows for the identification of compounds that may have been omitted by the standard identification screen. […] These TTE active compounds may represent compounds acting by novel mechanisms.
Twenty mice are pretreated with 100 mg/kg of the test compound. […] This stimulation produces a TTE seizure in the animals. For each time interval, results are expressed as a ratio of the number of animals protected over the number of animals tested.

[8] = test system: maximal electroshock seizures; test: MES confirmation of TTE test, mice ip; type: in vivo; settings: 100 mg/kg
Protocol: as §1, §4
Twenty mice are pretreated with 100 mg/kg of the test compound. At several time intervals (15 min, 30 min, 1 h, 2 h and 4 h) post treatment with the test compound, four mice at each time point are challenged with 12.5 mA of electrical current for 0.2 sec via corneal electrodes. This stimulation produces a TTE seizure in the animals. For each time interval, results are expressed as a ratio of the number of animals protected over the number of animals tested.

[9] = 0.5 h, 30 min, read-out: scMet 30 min
[10] = 4 h, read-out: MES 4 h (converted)
[11] = 0.5 h, 30 min, read-out: MES 30 min (converted)

Work on `COC(=O)[C@@H]1C(=O)C=C(Nc2ccc(Cl)cc2)C[C@H]1C` (relative stereo) [Compound 1, methyl 4-[(4'-chlorophenyl)-amino]-6-methyl-2-oxo-3-cyclohexene-1-carboxylate, reference compound] yielded a responders at 10 mg/kg ([1]; 0.25 h) of 75%, a responders at 10 mg/kg ([1]; 1.00 h) of 100% and a responders at 10 mg/kg ([1]; 2.00 h) of 100%. The responders at 10 mg/kg ([1]; 4.00 h) was 75%, the responders at 10 mg/kg ([1]; 0.5 h, 0.50 h) was 100% and the ED50 ([1]; first test, read-out: ED50) was 5.8 mg/kg. For the same compound, the “MES (repeat test)” value ([1]; repeat test, 0.50 h) was 3/4, the “MES (repeat test)” value ([1]; repeat test, 1.00 h) was 2/4 and the “MES (repeat test)” value ([1]; repeat test, 2.00 h) was 1/4. For the same compound, the TD50 [2] was > 380 mg/kg.
Compound `CCOC(=O)[C@@H]1C(=O)C2=C(C[C@H]1C)Nc1ccccc1S2` (relative stereo) [Compound 4b, 3-Carbethoxy-2-methyl-2,3-dihydro-1H-phenothiazin-4[10H] -one] has a responders at 10 mg/kg [3, 9] of 0%, a responders at 30 mg/kg [3, 9] of 0% and a responders at 100 mg/kg [3, 9] of 0%. For the same compound, the responders at 10 mg/kg ([3]; 4 h, read-out: scMet 4 h) was 0%, the responders at 30 mg/kg ([3]; 4 h, read-out: scMet 4 h) was 0% and the responders at 100 mg/kg ([3]; 4 h, read-out: scMet 4 h) was 0%. For the same compound, the responders at 10 mg/kg ([4]; 4 h, read-out: MES 4 h) was 0%, the responders at 30 mg/kg ([4]; 4 h, read-out: MES 4 h) was 0% and the responders at 100 mg/kg [4, 10] was 0%. It also gave a responders at 10 mg/kg ([4]; 0.5 h, 30 min, read-out: MES 30 min) of 0%, a responders at 30 mg/kg [4, 11] of 33.3% and a responders at 100 mg/kg [4, 11] of 100%. The “Tox 30 min” value ([5]; 10 mg/kg) was 0/4, the “Tox 4 h” value ([5]; 10 mg/kg) was 0/2 and the “Tox 30 min” value ([5]; 30 mg/kg) was 0/8. For the same compound, the “Tox 4 h” value ([5]; 30 mg/kg) was 0/4, the “Tox 30 min” value ([5]; 100 mg/kg) was 0/4 and the “Tox 4 h” value ([5]; 100 mg/kg) was 0/2. The responders at 30 mg/kg ([1]; 0.25 h) was 75%, the responders at 30 mg/kg ([1]; 1.00 h) was 50% and the responders at 30 mg/kg ([1]; 2.00 h) was 0%. For the same compound, the responders at 30 mg/kg ([1]; 4.00 h) was 100%, the responders at 30 mg/kg ([1]; 0.5 h, 0.50 h) was 25% and the ED50 ([1]; repeat test, read-out: ED50 (repeat test)) was 47.2 mg/kg. The “protective index (TD50/ED50)” value ([1]; repeat test (ED50 47.2, TD50 >500 mg/kg)) was > 10.6, the TD50 [2] was > 500 mg/kg and the Tox ([6]; 0.25 h) was 0/4. The Tox ([6]; 0.50 h) was 1/2, the Tox ([6]; 1.00 h) was 0/4 and the Tox ([6]; 2.00 h) was 0/4. The Tox ([6]; 4.00 h) was 0/4.
With `CC1CC(=O)C2=C(C1)Nc1ccccc1S2` (centres unmarked) [Compound 4d, 2-Methyl-2,3-dihydro-1H-phenothiazin-4[10H] -one] the responders at 30 mg/kg [3, 9] was 0%, the responders at 100 mg/kg [3, 9] was 0% and the responders at 300 mg/kg ([3]; 0.5 h, 30 min, read-out: scMet 30 min (converted)) was 0%. For the same compound, the responders at 30 mg/kg ([3]; 4 h, read-out: scMet 4 h) was 0%, the responders at 100 mg/kg ([3]; 4 h, read-out: scMet 4 h) was 0% and the responders at 300 mg/kg ([3]; 4 h, read-out: scMet 4 h (converted)) was 0%. For the same compound, the responders at 30 mg/kg ([4]; 4 h, read-out: MES 4 h) was 0%, the responders at 100 mg/kg [4, 10] was 0% and the responders at 300 mg/kg [4, 10] was 0%. It also gave a responders at 30 mg/kg [4, 11] of 0%, a responders at 100 mg/kg [4, 11] of 0% and a responders at 300 mg/kg [4, 11] of 0%. For the same compound, the “phase I activity” value ([4]; Phase I, in words) was “inactive”, the “Tox 30 min” value ([5]; 30 mg/kg) was 0/4 and the “Tox 4 h” value ([5]; 30 mg/kg) was 0/2. The “Tox 30 min” value ([5]; 100 mg/kg) was 0/8, the “Tox 4 h” value ([5]; 100 mg/kg) was 0/4 and the “Tox 30 min” value ([5]; 300 mg/kg) was 0/4. For the same compound, the “Tox 4 h” value ([5]; 300 mg/kg) was 0/2, the “TTE Result” value ([7]; 0.25 h) was 1/4 and the “TTE Result (repeat test)” value ([7]; 0.25 h) was 2/4. For the same compound, the “TTE Result” value ([7]; 0.50 h) was 3/4, the “TTE Result (repeat test)” value ([7]; 0.50 h) was 2/4 and the “TTE Result” value ([7]; 1.00 h) was 1/4. The “TTE Result (repeat test)” value ([7]; 1.00 h) was 0/4, the “TTE Result” value ([7]; 2.00 h) was 3/4 and the “TTE Result (repeat test)” value ([7]; 2.00 h) was 0/4. The “TTE Result” value ([7]; 4.00 h) was 0/4, the “TTE Result (repeat test)” value ([7]; 4.00 h) was 0/4 and the “TTE Result (repeat test)” value ([7]; 6.00 h) was 1/4. For the same compound, the MES confirmation ([8]; 0.25 h) was 0/4, the “MES confirmation (repeat test)” value ([8]; 0.25 h) was 1/4 and the MES confirmation ([8]; 0.50 h) was 3/4. The “MES confirmation (repeat test)” value ([8]; 0.50 h) was 1/4, the MES confirmation ([8]; 1.00 h) was 1/4 and the MES confirmation ([8]; 2.00 h) was 0/4.
